Experimental data reported in ChEMBL document CHEMBL3991601, “The target landscape of clinical kinase drugs” (Science, 2017).
Activity calls are given as the source filed them.

Assays:
[1] = target: Membrane-associated progesterone receptor component 1 (Homo sapiens, UniProt O00264)
[2] = target: Cyclin-dependent kinase 17 (Homo sapiens, UniProt Q00537)
[3] = target: T1, Protein kinase C zeta type (Homo sapiens, UniProt Q05513)
T1 sequence (Q05513 whole entry): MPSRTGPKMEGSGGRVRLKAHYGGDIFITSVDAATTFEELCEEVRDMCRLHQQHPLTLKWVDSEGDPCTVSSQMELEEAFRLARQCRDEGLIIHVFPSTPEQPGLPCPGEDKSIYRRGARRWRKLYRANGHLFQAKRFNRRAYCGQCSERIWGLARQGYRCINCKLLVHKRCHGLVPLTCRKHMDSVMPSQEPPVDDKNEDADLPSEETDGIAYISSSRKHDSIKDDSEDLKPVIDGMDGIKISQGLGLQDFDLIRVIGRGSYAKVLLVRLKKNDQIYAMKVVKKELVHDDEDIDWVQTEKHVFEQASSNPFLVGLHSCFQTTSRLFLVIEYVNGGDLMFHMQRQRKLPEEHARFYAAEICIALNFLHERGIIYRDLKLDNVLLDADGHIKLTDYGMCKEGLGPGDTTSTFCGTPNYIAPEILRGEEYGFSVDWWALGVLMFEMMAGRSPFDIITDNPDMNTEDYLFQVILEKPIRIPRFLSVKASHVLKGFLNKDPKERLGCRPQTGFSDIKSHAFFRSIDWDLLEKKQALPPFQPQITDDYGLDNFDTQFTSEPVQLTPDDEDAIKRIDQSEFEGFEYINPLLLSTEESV

[4] = target: T2, Dual specificity protein kinase TTK (Homo sapiens, UniProt P33981)
T2 sequence (P33981 whole entry): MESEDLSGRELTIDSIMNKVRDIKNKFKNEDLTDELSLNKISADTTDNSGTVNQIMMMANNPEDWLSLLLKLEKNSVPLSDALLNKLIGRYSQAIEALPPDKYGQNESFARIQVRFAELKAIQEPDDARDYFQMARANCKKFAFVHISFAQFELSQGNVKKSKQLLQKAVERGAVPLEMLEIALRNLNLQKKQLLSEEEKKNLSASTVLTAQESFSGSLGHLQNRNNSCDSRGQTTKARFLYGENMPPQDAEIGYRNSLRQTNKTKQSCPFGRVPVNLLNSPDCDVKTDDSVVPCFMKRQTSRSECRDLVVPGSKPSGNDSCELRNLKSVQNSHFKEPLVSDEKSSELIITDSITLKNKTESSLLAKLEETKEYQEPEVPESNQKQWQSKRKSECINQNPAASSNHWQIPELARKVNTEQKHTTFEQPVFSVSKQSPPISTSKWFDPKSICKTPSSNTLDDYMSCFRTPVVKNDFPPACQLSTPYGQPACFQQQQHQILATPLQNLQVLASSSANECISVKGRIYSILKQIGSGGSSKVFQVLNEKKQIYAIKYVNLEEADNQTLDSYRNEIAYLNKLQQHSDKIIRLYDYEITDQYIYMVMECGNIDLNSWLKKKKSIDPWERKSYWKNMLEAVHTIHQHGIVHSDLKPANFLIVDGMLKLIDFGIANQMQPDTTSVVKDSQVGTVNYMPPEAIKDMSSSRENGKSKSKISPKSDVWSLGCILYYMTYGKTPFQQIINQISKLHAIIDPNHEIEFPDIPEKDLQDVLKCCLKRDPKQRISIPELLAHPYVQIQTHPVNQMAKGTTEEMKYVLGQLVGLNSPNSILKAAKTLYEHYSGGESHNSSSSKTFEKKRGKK

[5] = target: Dual specificity protein kinase CLK4 (Homo sapiens, UniProt Q9HAZ1)
Sequence of Dual specificity protein kinase CLK4 (Q9HAZ1 whole entry): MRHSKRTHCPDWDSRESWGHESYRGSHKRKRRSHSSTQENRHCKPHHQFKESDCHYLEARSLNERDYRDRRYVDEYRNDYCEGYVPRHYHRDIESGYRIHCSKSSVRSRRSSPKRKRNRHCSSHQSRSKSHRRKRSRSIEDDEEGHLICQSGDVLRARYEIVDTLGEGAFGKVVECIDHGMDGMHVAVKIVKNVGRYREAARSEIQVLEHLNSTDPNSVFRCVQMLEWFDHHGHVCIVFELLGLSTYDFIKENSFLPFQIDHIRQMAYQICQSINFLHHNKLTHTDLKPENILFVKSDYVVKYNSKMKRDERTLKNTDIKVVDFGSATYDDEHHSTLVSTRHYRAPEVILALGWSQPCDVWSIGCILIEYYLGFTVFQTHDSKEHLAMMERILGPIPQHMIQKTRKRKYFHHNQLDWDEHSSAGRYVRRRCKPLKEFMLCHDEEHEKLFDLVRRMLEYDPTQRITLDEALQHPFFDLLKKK

[6] = target: T3, MAP/microtubule affinity-regulating kinase 4 (Homo sapiens, UniProt Q96L34)
T3 sequence (Q96L34 whole entry): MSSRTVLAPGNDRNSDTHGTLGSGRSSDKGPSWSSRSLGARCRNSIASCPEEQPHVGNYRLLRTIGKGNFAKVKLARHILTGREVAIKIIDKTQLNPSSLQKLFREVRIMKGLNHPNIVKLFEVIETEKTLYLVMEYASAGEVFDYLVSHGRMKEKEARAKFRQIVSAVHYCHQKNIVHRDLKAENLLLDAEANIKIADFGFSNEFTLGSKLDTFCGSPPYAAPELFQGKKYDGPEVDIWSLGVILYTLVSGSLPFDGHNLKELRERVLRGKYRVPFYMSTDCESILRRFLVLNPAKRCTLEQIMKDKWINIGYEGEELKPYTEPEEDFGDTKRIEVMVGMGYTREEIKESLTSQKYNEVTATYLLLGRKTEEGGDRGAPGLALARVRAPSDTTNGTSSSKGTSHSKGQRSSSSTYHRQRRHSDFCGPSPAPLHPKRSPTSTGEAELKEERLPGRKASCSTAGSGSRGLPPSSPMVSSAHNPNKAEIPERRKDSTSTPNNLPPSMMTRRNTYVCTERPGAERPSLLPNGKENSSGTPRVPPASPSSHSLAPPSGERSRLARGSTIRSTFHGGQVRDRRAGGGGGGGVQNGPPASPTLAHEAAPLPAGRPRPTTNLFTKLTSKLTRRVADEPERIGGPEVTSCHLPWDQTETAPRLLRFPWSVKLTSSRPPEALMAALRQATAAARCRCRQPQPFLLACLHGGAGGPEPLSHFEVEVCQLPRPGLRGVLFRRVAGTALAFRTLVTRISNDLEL

[7] = target: Serine/threonine-protein kinase ATR (Homo sapiens, UniProt Q13535)
Sequence of Serine/threonine-protein kinase ATR (Q13535 whole entry, the tested form may be a part): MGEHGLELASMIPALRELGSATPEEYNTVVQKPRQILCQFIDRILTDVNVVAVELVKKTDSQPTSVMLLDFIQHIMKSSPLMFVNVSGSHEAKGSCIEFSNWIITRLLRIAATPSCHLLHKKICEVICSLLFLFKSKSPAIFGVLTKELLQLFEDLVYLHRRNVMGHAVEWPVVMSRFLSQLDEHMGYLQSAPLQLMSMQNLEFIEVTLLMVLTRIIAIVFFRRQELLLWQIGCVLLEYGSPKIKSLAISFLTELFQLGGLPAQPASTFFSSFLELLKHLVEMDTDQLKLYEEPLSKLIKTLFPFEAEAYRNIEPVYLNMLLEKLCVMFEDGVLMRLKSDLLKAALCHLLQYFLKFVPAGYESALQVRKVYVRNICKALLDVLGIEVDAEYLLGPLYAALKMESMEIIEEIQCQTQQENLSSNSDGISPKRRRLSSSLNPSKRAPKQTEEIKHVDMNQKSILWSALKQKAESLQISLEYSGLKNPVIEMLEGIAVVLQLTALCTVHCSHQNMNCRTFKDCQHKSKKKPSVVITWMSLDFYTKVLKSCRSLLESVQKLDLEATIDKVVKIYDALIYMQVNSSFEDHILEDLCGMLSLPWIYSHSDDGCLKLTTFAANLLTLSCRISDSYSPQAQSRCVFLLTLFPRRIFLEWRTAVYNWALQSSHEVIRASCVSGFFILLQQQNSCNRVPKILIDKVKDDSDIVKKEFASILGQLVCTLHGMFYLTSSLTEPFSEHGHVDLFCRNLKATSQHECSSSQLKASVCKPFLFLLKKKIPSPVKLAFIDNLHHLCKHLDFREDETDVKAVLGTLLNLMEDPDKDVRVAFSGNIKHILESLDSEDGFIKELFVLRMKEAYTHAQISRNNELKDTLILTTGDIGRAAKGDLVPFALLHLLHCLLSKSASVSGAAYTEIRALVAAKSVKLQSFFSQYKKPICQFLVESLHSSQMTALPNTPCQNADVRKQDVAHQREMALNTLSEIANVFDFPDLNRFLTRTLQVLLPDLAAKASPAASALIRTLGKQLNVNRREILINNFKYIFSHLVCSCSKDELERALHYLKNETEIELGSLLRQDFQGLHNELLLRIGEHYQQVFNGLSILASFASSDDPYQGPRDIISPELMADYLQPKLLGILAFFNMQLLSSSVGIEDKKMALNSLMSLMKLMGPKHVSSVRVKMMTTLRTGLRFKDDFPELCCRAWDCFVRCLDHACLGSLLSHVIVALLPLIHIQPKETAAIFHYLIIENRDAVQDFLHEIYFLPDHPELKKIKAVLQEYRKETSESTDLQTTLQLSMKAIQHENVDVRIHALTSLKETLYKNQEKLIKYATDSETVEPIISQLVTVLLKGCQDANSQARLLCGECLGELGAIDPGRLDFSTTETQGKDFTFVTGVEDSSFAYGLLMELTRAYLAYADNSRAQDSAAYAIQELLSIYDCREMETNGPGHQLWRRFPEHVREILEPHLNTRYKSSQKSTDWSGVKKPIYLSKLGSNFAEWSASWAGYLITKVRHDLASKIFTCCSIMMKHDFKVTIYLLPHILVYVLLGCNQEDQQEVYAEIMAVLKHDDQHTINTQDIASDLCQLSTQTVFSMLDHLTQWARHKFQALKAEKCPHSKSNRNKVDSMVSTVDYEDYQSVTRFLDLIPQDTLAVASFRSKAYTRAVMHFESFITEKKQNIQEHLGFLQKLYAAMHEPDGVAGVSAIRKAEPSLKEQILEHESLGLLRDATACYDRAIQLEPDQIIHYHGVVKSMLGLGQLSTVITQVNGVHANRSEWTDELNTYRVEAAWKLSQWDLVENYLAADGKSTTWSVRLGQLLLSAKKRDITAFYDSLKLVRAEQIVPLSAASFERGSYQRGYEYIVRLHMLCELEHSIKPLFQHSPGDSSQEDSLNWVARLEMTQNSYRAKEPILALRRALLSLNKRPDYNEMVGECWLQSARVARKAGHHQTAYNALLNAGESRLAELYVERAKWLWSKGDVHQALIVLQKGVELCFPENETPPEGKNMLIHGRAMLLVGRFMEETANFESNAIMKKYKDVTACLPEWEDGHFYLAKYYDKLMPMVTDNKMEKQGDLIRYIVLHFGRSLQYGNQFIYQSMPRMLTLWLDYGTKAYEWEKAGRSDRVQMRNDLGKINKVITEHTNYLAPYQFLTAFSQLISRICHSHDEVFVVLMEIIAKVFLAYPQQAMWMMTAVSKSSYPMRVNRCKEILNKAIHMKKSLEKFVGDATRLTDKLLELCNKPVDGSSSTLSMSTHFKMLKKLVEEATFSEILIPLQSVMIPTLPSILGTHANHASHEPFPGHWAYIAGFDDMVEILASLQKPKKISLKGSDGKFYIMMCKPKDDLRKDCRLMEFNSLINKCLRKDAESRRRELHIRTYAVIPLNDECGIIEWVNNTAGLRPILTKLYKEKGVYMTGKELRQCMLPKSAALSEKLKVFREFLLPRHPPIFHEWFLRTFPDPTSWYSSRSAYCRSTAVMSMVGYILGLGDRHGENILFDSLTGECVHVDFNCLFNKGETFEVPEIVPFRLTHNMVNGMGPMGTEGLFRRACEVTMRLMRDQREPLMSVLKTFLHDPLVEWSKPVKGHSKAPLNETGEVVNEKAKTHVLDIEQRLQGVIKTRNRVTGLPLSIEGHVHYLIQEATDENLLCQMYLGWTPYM

[8] = target: PAS domain-containing serine/threonine-protein kinase (Homo sapiens, UniProt Q96RG2)
[9] = target: Uncharacterized aarF domain-containing protein kinase 5 (Homo sapiens, UniProt Q3MIX3)
Sequence of Uncharacterized aarF domain-containing protein kinase 5 (Q3MIX3 whole entry, the tested form may be a part): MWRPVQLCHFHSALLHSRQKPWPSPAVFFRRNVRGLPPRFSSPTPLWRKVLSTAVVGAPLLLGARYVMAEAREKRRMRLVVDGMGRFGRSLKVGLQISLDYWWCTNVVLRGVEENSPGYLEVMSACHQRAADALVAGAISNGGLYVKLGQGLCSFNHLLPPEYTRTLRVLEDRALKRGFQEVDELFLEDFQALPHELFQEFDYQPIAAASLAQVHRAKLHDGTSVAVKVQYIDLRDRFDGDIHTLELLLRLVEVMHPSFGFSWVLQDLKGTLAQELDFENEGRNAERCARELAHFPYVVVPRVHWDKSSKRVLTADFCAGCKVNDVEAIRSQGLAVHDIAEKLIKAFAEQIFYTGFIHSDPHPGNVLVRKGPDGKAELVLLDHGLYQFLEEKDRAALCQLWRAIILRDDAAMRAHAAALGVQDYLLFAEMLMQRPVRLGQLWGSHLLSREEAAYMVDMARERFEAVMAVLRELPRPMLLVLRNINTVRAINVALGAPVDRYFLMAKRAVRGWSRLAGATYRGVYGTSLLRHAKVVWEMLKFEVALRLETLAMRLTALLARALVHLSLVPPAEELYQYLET

[10] = target: MAP kinase-activated protein kinase 3 (Homo sapiens, UniProt Q16644)
Sequence of MAP kinase-activated protein kinase 3 (Q16644 whole entry): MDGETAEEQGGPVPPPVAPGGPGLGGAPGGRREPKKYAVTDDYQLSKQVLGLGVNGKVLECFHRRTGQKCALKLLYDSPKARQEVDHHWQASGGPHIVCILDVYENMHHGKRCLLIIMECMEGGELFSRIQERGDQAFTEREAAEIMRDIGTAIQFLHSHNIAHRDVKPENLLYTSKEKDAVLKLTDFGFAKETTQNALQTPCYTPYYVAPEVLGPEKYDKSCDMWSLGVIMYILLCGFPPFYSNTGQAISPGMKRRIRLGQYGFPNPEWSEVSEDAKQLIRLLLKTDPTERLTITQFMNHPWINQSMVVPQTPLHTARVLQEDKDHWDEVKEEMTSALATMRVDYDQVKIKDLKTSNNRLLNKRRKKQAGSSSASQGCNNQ
Also: in the data inactive means no Kd found up to 30 µM.

Sequence of Cyclin-dependent kinase 17 (Q00537 whole entry): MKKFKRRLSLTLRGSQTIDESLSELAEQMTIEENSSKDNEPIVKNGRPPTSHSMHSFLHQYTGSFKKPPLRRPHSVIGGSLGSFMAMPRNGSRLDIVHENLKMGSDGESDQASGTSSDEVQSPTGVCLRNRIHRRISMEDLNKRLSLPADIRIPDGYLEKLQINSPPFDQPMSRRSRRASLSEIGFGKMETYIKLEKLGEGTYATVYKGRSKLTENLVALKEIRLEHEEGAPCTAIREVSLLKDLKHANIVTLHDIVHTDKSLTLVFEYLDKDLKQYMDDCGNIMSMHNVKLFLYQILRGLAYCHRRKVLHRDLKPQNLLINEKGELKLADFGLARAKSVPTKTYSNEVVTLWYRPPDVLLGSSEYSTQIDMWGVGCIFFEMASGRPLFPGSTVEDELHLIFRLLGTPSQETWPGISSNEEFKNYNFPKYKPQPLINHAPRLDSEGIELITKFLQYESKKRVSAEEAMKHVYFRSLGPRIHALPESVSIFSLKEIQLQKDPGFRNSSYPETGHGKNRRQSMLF
Sequence of Membrane-associated progesterone receptor component 1 (O00264 whole entry): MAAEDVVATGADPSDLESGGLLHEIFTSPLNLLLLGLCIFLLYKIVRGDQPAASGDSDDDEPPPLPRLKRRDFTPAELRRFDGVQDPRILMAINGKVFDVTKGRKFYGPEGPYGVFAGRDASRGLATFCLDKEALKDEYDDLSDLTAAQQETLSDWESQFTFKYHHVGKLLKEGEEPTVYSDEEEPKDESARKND

Compound | Kd [1] | Kd [2] | Kd [3] | Kd [4] | Kd [5] | Kd [6] | Kd [7] | Kd [8] | Kd [9] | Kd [10]
COc1cc2nccc(Oc3ccc(NC(=O)C4(C(=O)Nc5ccc(F)cc5)CC4)cc3)c2cc1OC [CABOZANTINIB] | > 30 µM (inactive) | > 30 µM (inactive) | > 30 µM (inactive) | > 30 µM (inactive) | > 30 µM (inactive) | > 30 µM (inactive) |  |  |  | 
O=C(Nc1ccc(OC(F)(F)F)cc1)c1sccc1NCc1ccnc2ccccc12 [OSI-930] | > 30 µM (inactive) | > 30 µM (inactive) | > 30 µM (inactive) | > 30 µM (inactive) | > 30 µM (inactive) | > 30 µM (inactive) | > 30 µM (inactive) | > 30 µM (inactive) | > 30 µM (inactive) | 
COc1cccc(Nc2ncnn3ccc(CN4CC[C@@H](N)[C@H](O)C4)c23)c1 [BMS-690514] |  |  | > 30 µM (inactive) | > 30 µM (inactive) |  | > 30 µM (inactive) |  |  |  | 
CNC(=O)c1cccc(-c2ccc3c(N4CCOC[C@@H]4C)nc(N4CCOC[C@@H]4C)nc3n2)c1 [VISTUSERTIB] | > 30 µM (inactive) | > 30 µM (inactive) |  | > 30 µM (inactive) | > 30 µM (inactive) | > 30 µM (inactive) | > 30 µM (inactive) | > 30 µM (inactive) | > 30 µM (inactive) | > 30 µM (inactive)
C=CCn1c(=O)c2cnc(Nc3ccc(N4CCN(C)CC4)cc3)nc2n1-c1cccc(C(C)(C)O)n1 [ADAVOSERTIB] | > 30 µM (inactive) | > 30 µM (inactive) | > 30 µM (inactive) | > 30 µM (inactive) |  | > 30 µM (inactive) | > 30 µM (inactive) | > 30 µM (inactive) | > 30 µM (inactive) | 
COc1cc2c(Oc3ccc4[nH]c(C)cc4c3F)ncnc2cc1OCCCN1CCCC1 [CEDIRANIB] |  |  | > 30 µM (inactive) |  |  |  | > 30 µM (inactive) | > 30 µM (inactive) | > 30 µM (inactive) | 
CC1(C)CNc2cc(NC(=O)c3cccnc3NCc3ccncc3)ccc21 [MOTESANIB] | > 30 µM (inactive) |  | > 30 µM (inactive) |  |  |  |  |  | > 30 µM (inactive) | 
COc1cc(Nc2ncc(F)c(Nc3ccc4c(n3)N(COP(=O)(O)O)C(=O)C(C)(C)O4)n2)cc(OC)c1OC [FOSTAMATINIB] | > 30 µM (inactive) | > 30 µM (inactive) | > 30 µM (inactive) | > 30 µM (inactive) |  | > 30 µM (inactive) | > 30 µM (inactive) | > 30 µM (inactive) | > 30 µM (inactive) | 
C[C@@H]1COC(Nc2ccc3ncnc(Nc4ccc(OCc5nccs5)c(Cl)c4)c3c2)=N1 [VARLITINIB] | > 30 µM (inactive) | > 30 µM (inactive) |  | > 30 µM (inactive) | > 30 µM (inactive) | > 30 µM (inactive) | > 30 µM (inactive) | > 30 µM (inactive) |  | > 30 µM (inactive)
Cc1ccc(C(=O)Nc2ccc(Oc3cc4cnn(C)c4cc3-c3cn[nH]c3)c(F)c2)c(=O)n1-c1ccc(F)cc1 [MERESTINIB] | > 30 µM (inactive) | > 30 µM (inactive) |  | > 30 µM (inactive) | > 30 µM (inactive) | > 30 µM (inactive) | > 30 µM (inactive) | > 30 µM (inactive) | > 30 µM (inactive) | > 30 µM (inactive)
O=C(O)c1ccc2c(c1)nc(Nc1cccc(Cl)c1)c1ccncc12 [SILMITASERTIB] | > 30 µM (inactive) | > 30 µM (inactive) |  | > 30 µM (inactive) | > 30 µM (inactive) |  | > 30 µM (inactive) |  |  | 0.026 µM (active)
Cc1c(Cn2c(C)nc3c(C(=O)O)cc(N4CCOCC4)cc32)cccc1C(F)(F)F [GSK-2636771] | > 30 µM (inactive) | > 30 µM (inactive) | > 30 µM (inactive) | > 30 µM (inactive) | > 30 µM (inactive) | > 30 µM (inactive) | > 30 µM (inactive) |  |  | 
CN(C)C/C=C/C(=O)Nc1cc2c(Nc3ccc(F)c(Cl)c3)ncnc2cc1O[C@H]1CCOC1 [AFATINIB] | > 30 µM (inactive) |  | > 30 µM (inactive) |  |  |  |  | > 30 µM (inactive) | > 30 µM (inactive) | > 30 µM (inactive)
Cn1cc(-c2[nH]c3cc(NC(=O)[C@H](N)C4CCCCC4)cc4c3c2C=NNC4=O)cn1 | > 30 µM (inactive) | > 30 µM (inactive) | > 30 µM (inactive) | > 30 µM (inactive) | > 30 µM (inactive) | 0.036 µM | > 30 µM (inactive) | > 30 µM (inactive) | > 30 µM (inactive) | 
COc1cc(F)c(F)c(Nc2ccc(I)cc2F)c1NS(=O)(=O)C1(C[C@H](O)CO)CC1 [REFAMETINIB] |  | > 30 µM (inactive) | > 30 µM (inactive) |  | > 30 µM (inactive) | > 30 µM (inactive) | > 30 µM (inactive) | > 30 µM (inactive) |  | 
Cn1cnc2c(F)c(Nc3ccc(Br)cc3Cl)c(C(=O)NOCCO)cc21 [SELUMETINIB] | > 30 µM (inactive) |  | > 30 µM (inactive) |  |  |  |  | > 30 µM (inactive) |  | 
COc1ccc2c(OCc3nnc4ccc(-c5ccccc5)nn34)ccnc2c1 [AMG-208] | > 30 µM (inactive) | > 30 µM (inactive) |  |  | > 30 µM (inactive) | > 30 µM (inactive) | > 30 µM (inactive) |  | > 30 µM (inactive) | > 30 µM (inactive)
CC1(COc2ccc3c(c2)ncn3-c2ccc3cccc(N4CCC(N)CC4)c3n2)COC1 [CRENOLANIB] |  | > 30 µM (inactive) | > 30 µM (inactive) |  |  | 0.025 µM (active) |  | > 30 µM (inactive) | > 30 µM (inactive) | 
C[C@@]1(C(=O)Nc2ccc(F)nc2)CCCN1c1nc(Nc2cc(C3CC3)n[nH]2)c2cccn2n1 [BMS-754807] |  |  | > 30 µM (inactive) |  |  |  | > 30 µM (inactive) |  |  | > 30 µM (inactive)
O=C(NC[C@H](O)CO)c1ccncc1Nc1ccc(I)cc1F [PIMASERTIB] | > 30 µM (inactive) | > 30 µM (inactive) | 10.4 µM | > 30 µM (inactive) | > 30 µM (inactive) | > 30 µM (inactive) |  | > 30 µM (inactive) |  | 
O=S(=O)(c1cccc2c(O)nccc12)N1CCCNCC1 [HYDROXYFASUDIL] | > 30 µM (inactive) | > 30 µM (inactive) | > 30 µM (inactive) | > 30 µM (inactive) | > 30 µM (inactive) |  | > 30 µM (inactive) | > 30 µM (inactive) | > 30 µM (inactive) | 
